# Results from ChEMBL document CHEMBL1201862, “PubChem BioAssay data set” (2004).
#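 Cultured in 96-well plates, cells were exposed to test compound for 48 hours across five concentrations. GI50 is the concentration that inhibits growth by half.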 The source made the active and inactive calls. No stated cut-off is given here; in the data, active = GI50 up to about 1.1 µM and inactive = higher.
# Columns and labels:
# Assay in all cases: DTP human tumour cell line panel, 48 h
# Malme-3M = tested on: Malme-3M
# NCI/ADR-RES = tested on: NCI/ADR-RES
# ACHN = tested on: ACHN
# UO-31 = tested on: UO-31
# KM12 = tested on: KM12
# DMS-273 = tested on: DMS-273
# HL-60 = tested on: HL-60
# HOP-62 = tested on: HOP-62
# SF-295 = tested on: SF-295
# COLO 205 = tested on: COLO 205
# XF498 = tested on: XF498
# SK-OV-3 = tested on: SK-OV-3
# HOP-92 = tested on: HOP-92
# OVCAR-8 = tested on: OVCAR-8
# DU-145 = tested on: DU-145
# 786-0 = tested on: 786-0
# MDA-N = tested on: MDA-N
# SN12C = tested on: SN12C
# SW-620 = tested on: SW-620
# M14 = tested on: M14
# NCI-H522 = tested on: NCI-H522
# DLD-1 = tested on: DLD-1
# NCI-H460 = tested on: NCI-H460
# UACC-257 = tested on: UACC-257
# OVCAR-5 = tested on: OVCAR-5
# M19-MEL = tested on: M19-MEL
# CCRF-CEM = tested on: CCRF-CEM
# SK-MEL-5 = tested on: SK-MEL-5
# SNB-19 = tested on: SNB-19
# HT-29 = tested on: HT-29
# KM-20L2 = tested on: KM-20L2
# PC-3 = tested on: PC-3
# DMS-114 = tested on: DMS-114
# SK-MEL-2 = tested on: SK-MEL-2
# SF-268 = tested on: SF-268
# SR = tested on: SR
# BT-549 = tested on: BT-549
# HCT-116 = tested on: HCT-116
# HCT-15 = tested on: HCT-15
# K562 = tested on: K562
# LOX IMVI = tested on: LOX IMVI
# IGROV-1 = tested on: IGROV-1
# NCI-H23 = tested on: NCI-H23
# OVCAR-3 = tested on: OVCAR-3
# SK-MEL-28 = tested on: SK-MEL-28
# SF-539 = tested on: SF-539
# MOLT-4 = tested on: MOLT-4
# MDA-MB-435 = tested on: MDA-MB-435
# A549 = tested on: A549
# TK-10 = tested on: TK-10
# UACC-62 = tested on: UACC-62
# U-251 = tested on: U-251
# LXFL 529 = tested on: LXFL 529
# A498 = tested on: A498
# NCI-H226 = tested on: NCI-H226
# Hs-578T = tested on: Hs-578T
# CAKI-1 = tested on: CAKI-1
# T47D = tested on: T47D
# MCF7 = tested on: MCF7
# EKVX = tested on: EKVX
# MDA-MB-231 = tested on: MDA-MB-231
# RPMI-8226 = tested on: RPMI-8226
# SNB-75 = tested on: SNB-75
# SNB-78 = tested on: SNB-78
# RXF 393 = tested on: RXF 393
# OVCAR-4 = tested on: OVCAR-4
# HCC 2998 = tested on: HCC 2998
smiles,measurement,setting,value
CCSC(=O)N1c2ccc(OC)cc2C=CC1C#N (stereo not drawn),GI50,Malme-3M,0.1 µM (active)
same,GI50,NCI/ADR-RES,0.00131 µM (active)
same,GI50,ACHN,0.0041 µM (active)
same,GI50,UO-31,< 0.01 µM (active)
same,GI50,KM12,0.00449 µM (active)
same,GI50,DMS-273,< 0.01 µM (active)
same,GI50,HL-60,0.00347 µM (active)
same,GI50,HOP-62,0.00841 µM (active)
same,GI50,SF-295,0.00405 µM (active)
same,GI50,COLO 205,0.00298 µM (active)
same,GI50,XF498,< 0.01 µM (active)
same,GI50,SK-OV-3,0.00425 µM (active)
same,GI50,HOP-92,0.1 µM (active)
same,GI50,OVCAR-8,0.00569 µM (active)
same,GI50,DU-145,0.00168 µM (active)
same,GI50,786-0,0.00344 µM (active)
same,GI50,MDA-N,0.00306 µM (active)
same,GI50,SN12C,0.00782 µM (active)
same,GI50,SW-620,0.00356 µM (active)
same,GI50,M14,0.00601 µM (active)
same,GI50,NCI-H522,0.00698 µM (active)
same,GI50,DLD-1,< 0.01 µM (active)
same,GI50,NCI-H460,0.00423 µM (active)
same,GI50,UACC-257,< 0.01 µM (active)
same,GI50,OVCAR-5,< 0.00993 µM (active)
same,GI50,M19-MEL,< 0.01 µM (active)
same,GI50,CCRF-CEM,0.00313 µM (active)
same,GI50,SK-MEL-5,0.00152 µM (active)
same,GI50,SNB-19,0.0176 µM (active)
same,GI50,HT-29,0.00139 µM (active)
same,GI50,KM-20L2,< 0.01 µM (active)
same,GI50,PC-3,0.00364 µM (active)
same,GI50,DMS-114,< 0.01 µM (active)
same,GI50,SK-MEL-2,< 0.01 µM (active)
same,GI50,SF-268,0.00113 µM (active)
same,GI50,SR,0.000843 µM (active)
same,GI50,BT-549,< 0.01 µM (active)
same,GI50,HCT-116,0.000509 µM (active)
same,GI50,HCT-15,0.00734 µM
same,GI50,K562,0.00632 µM (active)
same,GI50,LOX IMVI,0.00424 µM (active)
same,GI50,IGROV-1,0.00373 µM (active)
same,GI50,NCI-H23,0.00509 µM (active)
same,GI50,OVCAR-3,0.001 µM (active)
same,GI50,SK-MEL-28,0.308 µM (active)
same,GI50,SF-539,0.00177 µM (active)
same,GI50,MOLT-4,0.00345 µM (active)
same,GI50,MDA-MB-435,0.00292 µM (active)
same,GI50,A549,0.00565 µM (active)
same,GI50,TK-10,0.00971 µM (active)
same,GI50,UACC-62,0.00877 µM (active)
same,GI50,U-251,0.00403 µM (active)
same,GI50,LXFL 529,< 0.01 µM (active)
same,GI50,A498,< 0.01 µM (active)
same,GI50,NCI-H226,0.00759 µM (active)
same,GI50,Hs-578T,0.36 µM (active)
same,GI50,CAKI-1,< 0.01 µM (active)
same,GI50,T47D,228 µM (inactive)
same,GI50,MCF7,0.00883 µM (active)
same,GI50,EKVX,0.392 µM (active)
same,GI50,MDA-MB-231,0.00589 µM (active)
same,GI50,RPMI-8226,0.00273 µM (active)
same,GI50,SNB-75,0.00417 µM (active)
same,GI50,SNB-78,51.8 µM (inactive)
same,GI50,RXF 393,0.1 µM (active)
same,GI50,OVCAR-4,0.308 µM (active)
same,GI50,HCC 2998,0.00895 µM (active)
CC1(C)OC2C(CO)OC(N/C(=N/C#N)Oc3ccccc3)C2O1 (stereo not drawn),GI50,ACHN,> 100 µM (inactive)
same,GI50,UO-31,> 100 µM (inactive)
same,GI50,KM12,> 100 µM (inactive)
same,GI50,DMS-273,> 100 µM (inactive)
same,GI50,HL-60,> 100 µM (inactive)
same,GI50,HOP-62,> 100 µM (inactive)
same,GI50,SF-295,> 100 µM (inactive)
same,GI50,COLO 205,> 100 µM (inactive)
same,GI50,XF498,> 100 µM (inactive)
same,GI50,SK-OV-3,> 100 µM (inactive)
same,GI50,OVCAR-8,> 100 µM (inactive)
same,GI50,786-0,> 10 µM (inactive)
same,GI50,SN12C,> 100 µM (inactive)
same,GI50,SW-620,> 100 µM (inactive)
same,GI50,M14,> 100 µM (inactive)
same,GI50,DLD-1,> 100 µM (inactive)
same,GI50,NCI-H460,> 100 µM (inactive)
same,GI50,UACC-257,> 100 µM (inactive)
same,GI50,OVCAR-5,> 100 µM (inactive)
same,GI50,M19-MEL,> 100 µM (inactive)
same,GI50,CCRF-CEM,> 100 µM (inactive)
same,GI50,SK-MEL-5,> 100 µM (inactive)
same,GI50,SNB-19,> 100 µM (inactive)
same,GI50,HT-29,> 100 µM (inactive)
same,GI50,KM-20L2,> 100 µM (inactive)
same,GI50,DMS-114,> 100 µM (inactive)
same,GI50,SF-268,> 100 µM (inactive)
same,GI50,SR,> 100 µM (inactive)
same,GI50,HCT-116,> 100 µM (inactive)
same,GI50,HCT-15,> 100 µM
same,GI50,K562,> 100 µM (inactive)
same,GI50,LOX IMVI,> 100 µM (inactive)
same,GI50,IGROV-1,> 100 µM (inactive)
same,GI50,NCI-H23,> 100 µM (inactive)
same,GI50,OVCAR-3,> 100 µM (inactive)
same,GI50,SK-MEL-28,> 100 µM (inactive)
same,GI50,SF-539,> 100 µM (inactive)
same,GI50,MOLT-4,> 100 µM (inactive)
same,GI50,A549,> 100 µM (inactive)
same,GI50,TK-10,> 100 µM (inactive)
same,GI50,UACC-62,> 100 µM (inactive)
same,GI50,U-251,> 100 µM (inactive)
same,GI50,LXFL 529,> 100 µM (inactive)
same,GI50,NCI-H226,> 100 µM (inactive)
same,GI50,EKVX,> 100 µM (inactive)
same,GI50,RPMI-8226,> 100 µM (inactive)
same,GI50,SNB-75,75.9 µM (inactive)
same,GI50,SNB-78,> 100 µM (inactive)
same,GI50,RXF 393,> 100 µM (inactive)
same,GI50,OVCAR-4,> 100 µM (inactive)
same,GI50,HCC 2998,> 100 µM (inactive)
